Data reported in patent publication USRE34918E, “Azaazulene compounds which are useful as antiallergic and antiinflammatory agents” (Kaken Pharmaceutical Co., Ltd., priority 1988, dated 1995).
Values joined by “and” are separate entries in the source; they are usually repeats but may differ in a detail not shown here. Equal entries are not always repeated.

Columns and labels:
[1] = target: T1, 5-lipoxygenase (Cavia porcellus, UniProt A0A286X958); assay: 5-lipoxygenase inhibiting activity in guinea pig; assay type: biochemical; conditions: read-out: Inhibition rate against 5-lipoxygenase activity
T1 construct: 5-lipoxygenase was prepared with polymorphonuclear leukocyte obtained from peritoneal cavity; endogenous in cells; host or cells: guinea pig peritoneal polymorphonuclear leukocytes (casein-elicited)
T1 sequence (A0A286X958 1-674): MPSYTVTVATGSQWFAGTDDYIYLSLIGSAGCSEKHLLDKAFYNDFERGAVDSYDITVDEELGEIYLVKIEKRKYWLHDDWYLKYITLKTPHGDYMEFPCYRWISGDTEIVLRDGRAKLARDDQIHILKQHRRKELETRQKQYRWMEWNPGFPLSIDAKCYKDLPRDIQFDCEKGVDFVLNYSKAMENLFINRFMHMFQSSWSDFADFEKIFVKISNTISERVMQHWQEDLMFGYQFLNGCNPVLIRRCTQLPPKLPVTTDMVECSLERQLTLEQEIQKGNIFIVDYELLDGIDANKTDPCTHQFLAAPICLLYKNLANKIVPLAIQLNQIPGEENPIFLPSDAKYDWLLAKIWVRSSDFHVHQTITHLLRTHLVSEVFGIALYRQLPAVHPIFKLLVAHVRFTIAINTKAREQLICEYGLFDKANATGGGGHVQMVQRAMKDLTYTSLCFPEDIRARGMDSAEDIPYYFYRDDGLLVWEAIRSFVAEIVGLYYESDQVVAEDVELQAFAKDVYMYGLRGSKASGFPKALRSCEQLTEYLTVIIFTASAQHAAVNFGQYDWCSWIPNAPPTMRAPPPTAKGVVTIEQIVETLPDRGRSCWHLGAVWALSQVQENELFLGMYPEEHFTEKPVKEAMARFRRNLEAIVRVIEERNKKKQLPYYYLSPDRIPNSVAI
Procedure: The test was carried out according to the method of Ochi [cf. J. Biol. Chem., 258, 5754-5758 (1983)]. Two % casein solution in saline was injected intraperitoneally into guinea pigs in an amount of 1/10 of body weight. After 16 hours, 5-lipoxygenase was prepared with polymorphonuclear leukocyte obtained from peritoneal cavity. Test compound and 5-lipoxygenase were pre-incubated at 30° C. for 10 minutes, CaCl2 (calcium chloride) and ^14 C-arachidonic acid were added thereto, and the resulting mixture was incubated for 20 minutes. A mixture of ethyl acetate/methanol/0.2M citric acid=30/4/1 (by volume) was added thereto to stop the reaction. After centrifugation, the organic solvent layer was spotted on a plate for thin layer chromatography and developed. Effect of the test compound was determined from the amount of ^14 C-5-hydroxyeicosatetraenoic acid (hereinafter referred to as "5-HETE") formed from ^14 C-arachidonic acid. Radioactivity of 5-HETE position was measured with a liquid scintillation counter.
Inhibition rate against 5-lipoxygenase activity was calculated according to the following equation.
Inhibition rate against 5-lipoxygenase activity [formula] A: Value of radioactivity in the control group B: Value of radioactivity in the test compound group
Each test compound was used in a concentration of 10 μM.

[2] = tested on: carrageenin edema in a foot-pad of rat; assay: Effect on carrageenin edema in a foot-pad of rat; assay type: in vivo, rat (male Wister); conditions: 50 mg/kg p.o., 4 hours after carrageenin
Procedure: The test was carried out according to the modified method on a method of Winter et al [Proc. Soc. Exp. Biol Med., 111, 544-547 (1962)]. Five male Wister rats weighing 148 to 162 g which were subjected to fasting for 24 hours were used as one group.
The test compound was suspended in 0.5% aqueous solution of CMC, and the suspension was administered orally in a amount of 50 mg/kg. After 60 minutes, 0.1 ml of 1% carrageenin solution in physiological saline was injected subcutaneously into the foot-pad of the left hind foot. Four hours after the injection of carrageenin, the volume of the foot-pad was measured by the apparatus for measurement of foot-pad volume in rat (commercially available from Ugobasile).
Swelling volume was calculated from the difference between a volume of foot-pad before inflaming the foot-pad, i.e. normal volume and that after inflaming it. Effect of a test compound was expressed as inhibition rate against swelling by calculating percentage in comparison with the 0.5% CMC administration group.
Indomethacin (commercially available from Merck Co.) was used as a positive comparative drug.

SMILES: CC(C)c1cccc2n(Cc3ccc(F)cc3)c(=O)c(-c3nnn[nH]3)c-2c1 [Example 9, 1-(4-Fluorobenzyl)-5-iso-propyl-3-(5-tetrazolyl)-1-azaazulane-2-one]
- inhibition at 10 µM [1]: -5.4%
- Swelling volume 4 hours after inflaming, mean ± standard error [2]: 0.55 mL and 0.55 ± 0.032 mL
- Inhibition rate against swelling ([2]; vs 0.5% CMC group): 38.9%
